Measurements: patent US20230250084A1, “PYRAZOLYL PYRIMIDINONE COMPOUNDS AND THE USES THEREOF” (Purdue Research Foundation, priority 2019, published 2023)

Key:
[1] = target: AC1 (Homo sapiens, UniProt Q08828); assay: Adenylyl cyclase cAMP accumulation assay, HEK-ACA3/6 cells overexpressing human AC1; format: cell-based; set-up: expressed in transfected cells; host or cells: HEK-ACA3/6 cells (so in the source) overexpressing human AC1; conditions: Table 2; 3 μM A23187 + 0.5 mM IBMX, HTRF cAMP; read-out: AC1 IC50 (μM) ± SEM
AC1, sequence (Q08828 whole entry): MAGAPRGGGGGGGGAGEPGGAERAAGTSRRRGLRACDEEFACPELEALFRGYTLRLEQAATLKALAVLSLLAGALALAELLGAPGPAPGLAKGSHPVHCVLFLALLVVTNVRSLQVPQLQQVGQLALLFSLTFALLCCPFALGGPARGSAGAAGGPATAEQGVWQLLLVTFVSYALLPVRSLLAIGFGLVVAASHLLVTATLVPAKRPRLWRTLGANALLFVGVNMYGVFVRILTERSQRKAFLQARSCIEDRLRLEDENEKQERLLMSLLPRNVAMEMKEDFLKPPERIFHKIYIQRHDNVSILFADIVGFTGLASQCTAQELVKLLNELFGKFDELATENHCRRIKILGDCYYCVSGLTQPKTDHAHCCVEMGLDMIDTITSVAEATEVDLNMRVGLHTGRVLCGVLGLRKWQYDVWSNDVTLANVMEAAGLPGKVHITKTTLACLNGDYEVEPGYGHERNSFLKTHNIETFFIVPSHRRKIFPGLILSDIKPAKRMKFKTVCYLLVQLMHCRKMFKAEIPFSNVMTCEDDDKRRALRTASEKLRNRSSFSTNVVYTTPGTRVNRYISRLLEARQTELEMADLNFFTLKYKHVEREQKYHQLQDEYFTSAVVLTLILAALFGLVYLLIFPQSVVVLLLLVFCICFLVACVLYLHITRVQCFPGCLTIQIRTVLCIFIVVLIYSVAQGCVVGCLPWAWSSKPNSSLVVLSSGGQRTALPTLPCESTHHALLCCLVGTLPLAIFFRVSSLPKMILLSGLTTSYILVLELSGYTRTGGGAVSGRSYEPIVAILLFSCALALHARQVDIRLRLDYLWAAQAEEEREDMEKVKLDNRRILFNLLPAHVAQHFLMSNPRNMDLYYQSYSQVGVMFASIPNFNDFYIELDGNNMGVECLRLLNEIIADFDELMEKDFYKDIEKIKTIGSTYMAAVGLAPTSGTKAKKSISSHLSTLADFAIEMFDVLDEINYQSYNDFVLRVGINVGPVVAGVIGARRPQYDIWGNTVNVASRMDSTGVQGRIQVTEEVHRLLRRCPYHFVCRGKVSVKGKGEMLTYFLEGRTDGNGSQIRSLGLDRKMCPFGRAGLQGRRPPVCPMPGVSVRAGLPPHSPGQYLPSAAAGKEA
Protocol: Cryopreserved HEK-ACA3/6 cells overexpressing human AC1, AC2, AC5, or AC8 were transferred to a 15 mL Falcon tube and gently resuspended in prewarmed Opti-MEM.50 The cells were centrifuged for 5 min at 150 g, the supernatant was discarded, and the cell pellet was resuspended in 10 mL for a second centrifugation step. Then, the cells were counted, plated in a white opaque 384-well plate, and incubated for 1 h in a 37° C. incubator supplemented with 5% CO2. The hit compounds' working solutions were prepared in prewarmed Opti-MEM, and successive serial dilutions were prepared using a Precision 2000 automated pipetting system. Dose*-response curves were generated for each hit compound using a threefold serial dilution starting at 30 μM concentration (at least 6-points per curve). Compounds were added to the assay plates and incubated for 30 min at room temperature. AC activity was selectively stimulated on each AC isoform with 3 μM A23187 (AC1 and AC8), 100 nM PMA (AC2), or a low concentration (1 μM) of the AC activator, forskolin (AC5). All stimulants of AC activity were added in combination with IBMX at a final concentration of 0.5 mM. After 1 h incubation with the stimulant at room temperature, cAMP accumulation was detected using the fluorescence-based Cisbio HTRF cAMP detection kit. […] Percent inhibition at the highest concentration was used to determine max % inhibition (Max AC8% Inhibition). […]

[2] = target: AC8 (Homo sapiens, UniProt P40145); assay: Adenylyl cyclase cAMP accumulation assay, HEK-ACA3/6 cells overexpressing human AC8; format: cell-based; set-up: expressed in transfected cells; host or cells: HEK-ACA3/6 cells (so in the source) overexpressing human AC8; conditions: Table 2; for IC50: 3 μM A23187 + 0.5 mM IBMX, HTRF cAMP, read-out: AC8 IC50 (μM) ± SEM; for inhibition at up to 30 µM: percent inhibition at the highest concentration (dilution starting at 30 μM), read-out: Max AC8 % inhibition
AC8, sequence (P40145 whole entry): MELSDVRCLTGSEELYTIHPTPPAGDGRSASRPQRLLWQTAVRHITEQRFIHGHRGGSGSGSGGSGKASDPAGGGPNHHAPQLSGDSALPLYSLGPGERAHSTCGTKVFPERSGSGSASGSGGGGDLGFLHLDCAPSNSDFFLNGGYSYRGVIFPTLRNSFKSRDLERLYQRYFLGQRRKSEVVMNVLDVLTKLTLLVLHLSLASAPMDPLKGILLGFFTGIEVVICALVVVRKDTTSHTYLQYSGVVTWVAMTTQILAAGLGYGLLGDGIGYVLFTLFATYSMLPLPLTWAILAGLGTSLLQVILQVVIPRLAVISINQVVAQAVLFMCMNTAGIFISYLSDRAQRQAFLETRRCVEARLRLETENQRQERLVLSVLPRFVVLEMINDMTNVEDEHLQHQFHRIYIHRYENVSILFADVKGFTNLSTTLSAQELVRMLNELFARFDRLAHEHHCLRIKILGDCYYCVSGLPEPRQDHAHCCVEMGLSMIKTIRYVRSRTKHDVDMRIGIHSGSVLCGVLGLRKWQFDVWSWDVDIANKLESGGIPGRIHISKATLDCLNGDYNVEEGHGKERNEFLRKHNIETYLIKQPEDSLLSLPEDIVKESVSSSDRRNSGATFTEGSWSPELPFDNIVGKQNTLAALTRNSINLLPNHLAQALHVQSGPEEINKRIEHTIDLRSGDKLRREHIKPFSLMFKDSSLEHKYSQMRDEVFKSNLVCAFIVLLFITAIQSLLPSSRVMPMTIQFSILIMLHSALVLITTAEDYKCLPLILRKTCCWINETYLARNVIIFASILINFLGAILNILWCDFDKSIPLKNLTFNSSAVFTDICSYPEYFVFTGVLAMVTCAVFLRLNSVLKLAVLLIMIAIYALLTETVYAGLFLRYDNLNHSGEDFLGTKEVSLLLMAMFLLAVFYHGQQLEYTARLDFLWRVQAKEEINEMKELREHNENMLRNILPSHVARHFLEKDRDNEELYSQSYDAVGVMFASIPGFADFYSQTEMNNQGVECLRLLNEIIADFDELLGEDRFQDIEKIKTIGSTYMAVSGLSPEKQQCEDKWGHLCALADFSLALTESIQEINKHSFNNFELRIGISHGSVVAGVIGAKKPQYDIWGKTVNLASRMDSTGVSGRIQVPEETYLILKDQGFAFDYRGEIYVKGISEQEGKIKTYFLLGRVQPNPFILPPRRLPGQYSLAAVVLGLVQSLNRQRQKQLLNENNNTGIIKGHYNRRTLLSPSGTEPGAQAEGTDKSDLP
Protocol: Cryopreserved HEK-ACA3/6 cells overexpressing human AC1, AC2, AC5, or AC8 were transferred to a 15 mL Falcon tube and gently resuspended in prewarmed Opti-MEM.50 The cells were centrifuged for 5 min at 150 g, the supernatant was discarded, and the cell pellet was resuspended in 10 mL for a second centrifugation step. Then, the cells were counted, plated in a white opaque 384-well plate, and incubated for 1 h in a 37° C. incubator supplemented with 5% CO2. The hit compounds' working solutions were prepared in prewarmed Opti-MEM, and successive serial dilutions were prepared using a Precision 2000 automated pipetting system. Dose*-response curves were generated for each hit compound using a threefold serial dilution starting at 30 μM concentration (at least 6-points per curve). Compounds were added to the assay plates and incubated for 30 min at room temperature. AC activity was selectively stimulated on each AC isoform with 3 μM A23187 (AC1 and AC8), 100 nM PMA (AC2), or a low concentration (1 μM) of the AC activator, forskolin (AC5). All stimulants of AC activity were added in combination with IBMX at a final concentration of 0.5 mM. After 1 h incubation with the stimulant at room temperature, cAMP accumulation was detected using the fluorescence-based Cisbio HTRF cAMP detection kit. […] Percent inhibition at the highest concentration was used to determine max % inhibition (Max AC8% Inhibition).
The Max AC8 inhibition is a description of the maximum efficacy of molecules against AC8.

| Structure (SMILES) | IC50 [1] [µM] | IC50 [2] [µM] | inhibition at up to 30 µM [2] [%] |
| --- | --- | --- | --- |
| CCc1cc(=O)[nH]c(-n2nc(C)cc2NCc2ccc(C(=O)c3ccccc3)cc2)n1 [AC10144A] | 0.26 ± 0.03 | 2.01 ± 0.09 | 84 |
| Cc1cccc(CNc2cc(C)nn2-c2nccc(=O)[nH]2)c1 [AC10116A] | 2.63 ± 0.51 | 8.23 ± 4.05 | 83 |
| Cc1cc(NCc2ccc(Cl)cc2)n(-c2ccccc2)n1 [AC10113A] | 15.5 ± 8.63 | > 60 | 19 |
| CCc1cc(=O)[nH]c(-n2nc(C)cc2NCc2ccco2)n1 [AC10139A] | 1.07 ± 0.07 | > 60 | 23 |
| CCc1cc(=O)[nH]c(-n2nc(C)cc2NCc2cccs2)n1 [AC10140A] | 0.39 ± 0.02 | > 60 | 4 |
| Cc1cc(=O)[nH]c(-n2nc(C)cc2NCc2ccc(Cl)cc2)n1 [AC10111A] | 0.36 ± 0.12 | 31.8 ± 19.3 | 35 |
| Cc1cccc(CNc2cc(C)nn2-c2nc3c(c(=O)[nH]2)CCC3)c1 [AC10115A] | 0.75 ± 0.39 | 10.8 ± 4.61 | 82 |
| Cc1cccc(CNc2cc(C)nn2-c2nc(C)cc(=O)[nH]2)c1 [AC10114A] | 0.63 ± 0.22 | > 60 | 33 |
| Cc1cc(NCc2ccc(Cl)cc2)n(-c2nc3c(c(=O)[nH]2)CCC3)n1 [AC10110A] | 7.49 ± 2.9 | 58.9 ± 36.1 | 48 |
